The results in this text go back to ChEMBL document CHEMBL6083182, “Development of Peptide Paratope Mimics Derived from the Anti-ROR1 Antibody and Long-Acting Peptide-Drug Conjugates for Targeted Cancer Therapy” (J Med Chem, 2024).

Series [1] is described as follows: Drug uptake in ROR1 positive human MDA-MB-231 cells administered as FITC-labeled compound and measured after 30 to 120 mins by Hoechst 33342 staining based confocal fluorescence microscopic analysis. Type of series: ADME, cell-based. Conditions: time 30-120 min.
For series [2], the species on record is Homo sapiens. Kind of series: Binding affinity to CD16A (unknown origin) by SPR analysis.
Series [3] can be described thus: Drug penetration in human MDA-MB-231 cell spheroids assessed as increase in penetration rate at 10 uM administered as FITC-labeled compound and measured at 0.5 hrs by dual-color in vivo high-speed two-photon imaging system. The series is classed as ADME. To be noted: mda-mb-231, 0.5 h.
Series [4] concerns the target T1, Inactive tyrosine-protein kinase transmembrane receptor ROR1 (Homo sapiens, UniProt Q01973). Kind of series: Binding affinity to ROR1 positive human MDA-MB-231 cells at 10 uM administered as FITC-labeled compound and measured after 30 mins by Hoechst 33342 staining based confocal fluorescence microscopic analysis. The series is classed as cell-based.
The nature of series [5]: Drug penetration in human MDA-MB-231 cell spheroids assessed as fluorescence penetration rate at 10 uM administered as FITC-labeled compound and measured at 1 hrs by dual-color in vivo high-speed two-photon imaging system. The series is classed as ADME. Conditions: mda-mb-231, 1 h.
For series [6], the target named is T1, Inactive tyrosine-protein kinase transmembrane receptor ROR1. Briefly: Binding affinity to N-terminal His/GST-tagged recombinant human ROR1 (453 to 783 residues) extracted from baculovirus infected insect cells assessed as dissociation constant by SPR analysis. On the technique in general: SPR reads the build-up and loss of mass on a sensor chip optically.

Series [7] is described as follows: Drug uptake in BALB/c nude mouse liver xenografted with human MDA-MB-231 cells assessed as increase in fluorescence signal administered as indocyanine green dye conjugate and measured after 1 hrs by ex-vivo imaging analysis. Type of series: ADME, tissue-based. In general terms: In xenograft studies the graft and the host belong to different species.
Series [8] in a line: Drug distribution in BALB/c nude mouse tumor xenografted with human MDA-MB-231 cells assessed as increase in fluorescence signal administered as indocyanine green dye conjugate and measured after 1 hrs by DAPI staining based immunofluorescence analysis. The series is classed as ADME, tissue-based, Neoplasm. Conditions: in vivo.
Series [9] can be described thus: Drug uptake in BALB/c nude mouse tumor xenografted with human MDA-MB-231 cells assessed as increase in fluorescence signal administered as indocyanine green dye conjugate and measured after 0.5 hrs by invivo imaging analysis. The series is classed as ADME, tissue-based, Neoplasm. To be noted: in vivo.
The subject of series [10] is MCF7. Briefly: Binding affinity to ROR1 negative human MCF7 cells at 10 uM administered as FITC-labeled compound and measured after 30 mins by Hoechst 33342 staining based confocal fluorescence microscopic analysis. Type of series: functional, cell-based.
Series [11] is described as follows: Drug uptake in BALB/c nude mouse tumor xenografted with human MDA-MB-231 cells assessed as increase in fluorescence signal administered as indocyanine green dye conjugate and measured after 1 hrs by ex-vivo imaging analysis. The series is classed as ADME, tissue-based, Neoplasm.
Series [12] in a line: Drug uptake in BALB/c nude mouse kidney xenografted with human MDA-MB-231 cells assessed as increase in fluorescence signal administered as indocyanine green dye conjugate and measured after 1 hrs by ex-vivo imaging analysis. Type of series: ADME, tissue-based.

The source made the active and inactive calls. The calls are words filed in the database; no cut-off is given here.

T1 sequence (Q01973 whole entry): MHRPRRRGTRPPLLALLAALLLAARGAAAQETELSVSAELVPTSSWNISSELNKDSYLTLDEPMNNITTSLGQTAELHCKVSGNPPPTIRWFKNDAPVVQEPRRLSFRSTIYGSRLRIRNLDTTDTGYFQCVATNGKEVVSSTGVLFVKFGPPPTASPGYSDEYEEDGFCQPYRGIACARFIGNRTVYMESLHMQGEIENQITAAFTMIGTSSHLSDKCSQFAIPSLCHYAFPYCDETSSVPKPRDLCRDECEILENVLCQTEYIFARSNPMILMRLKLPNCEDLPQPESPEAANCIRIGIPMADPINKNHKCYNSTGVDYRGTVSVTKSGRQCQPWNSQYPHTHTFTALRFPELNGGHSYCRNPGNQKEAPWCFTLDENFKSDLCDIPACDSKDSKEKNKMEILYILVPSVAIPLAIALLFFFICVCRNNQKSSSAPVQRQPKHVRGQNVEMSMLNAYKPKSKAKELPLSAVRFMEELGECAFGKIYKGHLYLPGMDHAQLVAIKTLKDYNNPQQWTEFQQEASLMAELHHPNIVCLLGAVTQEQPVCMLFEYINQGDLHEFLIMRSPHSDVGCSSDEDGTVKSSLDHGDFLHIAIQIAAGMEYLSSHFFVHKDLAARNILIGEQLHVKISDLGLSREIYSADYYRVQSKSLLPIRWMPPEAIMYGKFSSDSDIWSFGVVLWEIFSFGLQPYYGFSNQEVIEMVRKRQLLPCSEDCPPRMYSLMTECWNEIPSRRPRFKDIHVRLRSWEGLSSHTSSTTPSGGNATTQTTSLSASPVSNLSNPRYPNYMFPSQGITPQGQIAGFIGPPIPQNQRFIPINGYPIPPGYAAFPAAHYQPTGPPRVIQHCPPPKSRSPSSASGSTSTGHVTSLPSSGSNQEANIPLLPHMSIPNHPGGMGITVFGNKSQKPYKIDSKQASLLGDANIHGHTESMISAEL

One may read the Kd as the constant that tells how readily two partners part at equilibrium. Turning to H-SDINDRQIPGYSTYWGDF-NH2, the Drug uptake entry is on record as “Active” in series [1]; “Active” in series [3]; ~ 100% in series [5]; “Active” in series [7]; “Active” in [8]; “Active” in series [9]. Moreover, the Drug uptake entry in [11] and in series [12] was “Active” each time. The Activity result in [2] was “Not active; Abnormal Binding Affinity Curves Observed”. Further, the result in [4] was Active. In addition, the dissociation constant (Kd) in series [6] was found to be 1.57 nM. Also, the outcome in [10] was inactive.
